Assay results taken from US20190000983A1, “AN EYE DROP SOLUTION FOR ENHANCED HYALURONIC ACID RETENTION AND DELIVERY” (THE JOHNS HOPKINS UNIVERSITY, priority 2015, published 2019).
Read-outs that look alike come from different tables or passages of the source. Ends that are not written are not given here.

Legend:
[1] = system: Rabbit conjunctival primary epithelial cells; assay: Live/dead staining and AlamarBlue cytotoxicity assessment; type: cell-based; settings: 1.0 mg/ml, 24 h; data not shown
Description: Rabbit conjunctival primary epithelial cells were isolated as described previously in the main text. Cells were seeded in 96 well microplates for AlamarBlue assays (Life Technologies, NY) and live/dead staining at a density of 10,000 cells/cm^2. Cells were allowed to grow to about 90% confluence before experiments were carried out. Three different concentrations of HA-FL were tested: 1.0 mg/ml, 100 μg/ml and 10 μg/ml. SABpep and ColBpep were added to the medium for 24 h with a concentration of 1.0 mg/ml. Calcein AM and ethidium homodimer-1 (EthD-1; Life Technologies, NY) were used as live/dead staining agents according manufacture's manual, and cells were imaged using Zeiss Axio Imager 2 microscope. AlamarBlue assay was performed with quadruplets for every group. After 2 h incubation, the absorbance values at 570 nm on a Synergy 2 microplate reader were recorded.

conjunctiva tissue = assay: HABA assay: screening of biotin-conjugated ocular surface-binding peptides on conjunctival tissue; design: species or system rabbit; settings: six peptides of Table 1, biotin-conjugated, 1.0 mg/mL in PBS, 20 min, compared to control
Description: Conjunctival tissue from the ocular surface was targeted to test the binding affinity of the multiple peptides. Conjunctiva was harvested from rabbit eyes (Pel-Freez Biologicals, Rogers, Ariz.) with the underlying tenon's capsule removed, and then cut into 6 mm pieces with a biopsy punch. The conjunctival epithelium was kept intact for testing SABpep, while the epithelium was scrapped off with a cell scraper for testing type I collagen-binding peptide (ColBpep). The tissue pieces were merged in the biotin-conjugated peptide solutions (1.0 mg/mL in PBS, pH 7.4; Life Technologies, NY) for 20 minutes and then washed three times with PBS to remove any unbound peptides. A HABA (4′-hydroxyazobenzene-2-carboxylic acid) assay (Life Technologies, NY) was used to measure the amount of bound peptide (biotin), per manufacturer's instructions. An aqueous solution of biotin (1.0 mg/mL) without peptides was used as a negative control.

[2] = system: rabbit conjunctiva tissue sections (sialic acid on mucin-1; collagen type I); settings: for localisation of peptide staining on conjunctiva sections: biotin-conjugated peptide 1.0 mg/ml, compared with anti-mucin-1 / anti-collagen type I antibody
Description: To visualize binding of SABpep and ColBpep to the ocular surface, we performed immunohistochemistry with biotin-conjugated peptides on tissue section of rabbit conjunctiva. Conjunctival tissue dissected from rabbit eyes were fixed with 4% paraformaldehyde (PFA) solution (Electron Microscopy Sciences, Hatfield, Pa.), embedded and sectioned (thickness-5 μm) in paraffin. The sections were first incubated with biotin-conjugated peptides (1.0 mg/ml in PBS pH 7.4) for 1 h at room temperature, washed thrice with PBS and then stained with streptavidin-Texas Red conjugate (Vector Laboratories, CA) in accordance to manufacturer's protocol. The samples were then washed again three times, mounted with DAPI mounting medium (Vector Laboratories) and imaged with Zeiss Axio Imager 2 microscope (Carl Zeiss, Jena, Germany). Sections stained with only secondary antibody served as negative control. Mouse anti-mucin-1 primary antibody (Novus Biologicals, Littleton, Colo.) and mouse anti-collagen type I antibody (Abcam, Cambridge, Mass.) were used as replacements to SABpep and ColBpep in the positive controls, respectively, and stained with goat anti-mouse IgG secondary antibody (Life Technologies, NY).
To examine if SABpep binds specifically to sialic acid segment on the oligosaccharide chains, paraffin embedded and 4% PFA fixed rabbit conjunctiva tissue sections were stained with three different groups were selected (SABpep, sialidase treated+SABpep, SA+SABpep). Sections in the first group were stained with SABpep as described in the main text; sections in the second group were treated with sialidase (α2-3,6,8 Neuraminidase, 60 U/ml; New England Biolabs, Ipswich, Mass.) first for one hour at 37° C. before the addition of SABpep; and finally, sections in the third group were stained with SABpep pre-incubated with sialic acid (N-Acetylneuraminic acid, 100 mM; Carbosynth, Compton, Berkshire, UK) for one hour at room temperature. The staining procedure was the same in all three groups (streptavidin-fluorescein was used for detecting biotin conjugated SABpep; DAPI was used as counterstain for nuclei). The sections were imaged using Zeiss Axio Imager 2 microscope.

Sequence | cytotoxicity to epithelial cells [1] | amount of peptide bound to conjunctiva tissue (normalized to the dry weight) (conjunctiva tissue) | amount of peptide bound to conjunctiva tissue (normalized to the dry weight) (conjunctiva tissue; listed as peptide 3) | localisation of peptide staining on conjunctiva sections ([2]; 1 h, listed as SABpep-biotin) | staining of epithelium after preincubation of peptide with sialic acid ([2]; sialic acid 100 mM, 1 h, room temperature) | binding to conjunctival epithelium after sialidase digestion of the section ([2]; sialidase 60 U/ml, 1 h at 37° C. before staining) | amount of peptide bound to conjunctiva tissue (normalized to the dry weight) (conjunctiva tissue; listed as peptide 6) | localisation of peptide staining on conjunctiva sections ([2]; 1 h, listed as ColBpep-biotin)
GGSPYGRC (also: biotin, position not given here) [SABpep] | little to no cytotoxicity | the most promising candidates | bound the most | binds selectively to epithelial lining of conjunctiva | still stained the epithelium | could not bind to conjunctival epithelium | – | –
SYIRIADTNIT [ColBpep] | little to no cytotoxicity | the most promising candidates | – | – | – | – | bound the most | binds to any collagen I on the tissue
